Source: patent US20230227466A1, “SUBSTITUTED THIENOPYRIMIDINES THAT INTERACT WITH THE RAS SUPERFAMILY FOR THE TREATMENT OF CANCERS, INFLAMMATORY DISEASES, RASOPATHIES, AND FIBROTIC DISEASE” (SHY Therapeutics, LLC, priority 2020, published 2023)
Like-named read-outs stand apart in the source and are kept apart here.

Experiments:
KRas wild type = KRas wild type (Homo sapiens, UniProt P01116); test: Ras GTP binding domain inhibition assay (labeled-GTP competition, cell-free); design: made in house
In short: (§1)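 His-tagged GTPases were coated at 10-30 μg/mL onto nickel plates overnight at 4° C, then exposed to compound (20 μM, or serial dilutions for IC50) in buffer with 1% DMSO for 3 h at room temperature, with or without 10-30 μg/mL His-Sos (556-1049) in the final hour. Cy3- or Cy5-GTP (100 nM, 45 min) binding was measured after washing.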

Rho-A = Rho-A (Homo sapiens, UniProt P61586); test: as above; design: made in house
In short: as §1

Rac-1 = Rac-1 (Homo sapiens, UniProt P63000); test: as above; design: made in house
In short: as §1

[1] = tested on: MIA-PaCa-2 pancreatic cancer cell line (KRAS G12C); test: Cell proliferation assay (CellTiter 96 Aqueous One); type: cell-based; details: Homo sapiens; for inhibition at 10 µM: MIA PaCa-2, read-out: % inh cell proliferation (10 μM) in MIA PaCa-2
In short: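 Read-out is MTS-based viability (CellTiter 96 Aqueous One) after 2–4 days of compound exposure at 37 °C in 10% FBS with 0.3% DMSO.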

KRas Q61H mutant = molecular target: T1, KRas Q61H mutant (Homo sapiens, UniProt P01116, Q61H); test: Ras GTP binding domain inhibition assay (labeled-GTP competition, cell-free)
T1 construct: made in house
In short: as §1

KRas G12D mutant = molecular target: T2, KRas G12D mutant (Homo sapiens, UniProt P01116, G12D); test: as above
T2 construct: made in house
In short: as §1

KRas G12C mutant = molecular target: T3, KRas G12C mutant (Homo sapiens, UniProt P01116, G12C); test: as above
T3 construct: made in house
In short: as §1

[2] = with SOS, read-out: KRas wild type + SOS: % inh.
[3] = without SOS, read-out: KRas wild type: % inh.
[4] = without SOS, read-out: Rho-A: % inh.
[5] = without SOS, read-out: Rac-1: % inh.
[6] = with SOS, read-out: KRas Q61H mutant + SOS: % inh.
[7] = without SOS, read-out: KRas Q61H mutant: % inh.
[8] = with SOS, read-out: KRas G12D mutant + SOS: % inh.
[9] = without SOS, read-out: KRas G12D mutant: % inh.
[10] = with SOS, read-out: KRas G12C mutant + SOS: % inh.
[11] = without SOS, read-out: KRas G12C mutant: % inh.
[12] = with SOS, read-out: Rho-A + SOS: % inh.
[13] = with SOS, read-out: Rac-1 + SOS: % inh.
[14] = MIA PaCa-2, MIA-PaCa-2, 2-4 days, 10% FBS

Compound	inhibition at 20 µM (KRas wild type; [2]) [%]	inhibition at 20 µM (KRas wild type; [3]) [%]	inhibition at 20 µM (Rho-A; [4]) [%]	inhibition at 20 µM (Rac-1; [5]) [%]	IC50 ([1]; MIA PaCa-2, MIA PaCa-2) [µM]	inhibition at 20 µM (KRas Q61H mutant; [6]) [%]	inhibition at 20 µM (KRas Q61H mutant; [7]) [%]	inhibition at 20 µM (KRas G12D mutant; [8]) [%]	inhibition at 20 µM (KRas G12D mutant; [9]) [%]	inhibition at 20 µM (KRas G12C mutant; [10]) [%]	inhibition at 20 µM (KRas G12C mutant; [11]) [%]	inhibition at 20 µM (Rho-A; [12]) [%]	inhibition at 20 µM (Rac-1; [13]) [%]	IC50 (KRas Q61H mutant; with SOS) [µM]	IC50 [1, 14] [µM]	inhibition at 10 µM [1] [%]
Cc1c(-c2ccn(C(C)C)n2)sc2nc(-c3nccn3C)nc(NCCc3cn(C)cn3)c12 [Compound 58, 6-(1-Isopropyl-1H-pyrazol-3-yl)-5-methyl-2-(1-methyl-1H-imidazol-2-yl)-N-(2-(1-methyl-1H-imidazol-4-yl)ethyl)thieno[2,3-d]pyrimidin-4-amine]	76 to 100	76 to 100	76 to 100	26 to 50	5 to 10	51 to 75	51 to 75	51 to 75	26 to 50	76 to 100	76 to 100	–	–	–	–	76 to 100
CO[C@H]1CC[C@@H](Nc2nc(C(=O)Nc3ccccn3)nc3sccc23)C1 (racemic) [Compound 16, rac-4-(((1R,3S)-3-Methoxycyclopentyl)amino)-N-(pyridin-2-yl)thieno[2,3-d]pyrimidine-2-carboxamide]	0	1 to 25	0	1 to 25	> 10	0	1 to 25	1 to 25	1 to 25	1 to 25	1 to 25	1 to 25	0	> 10	–	1 to 25
CO[C@H]1C[C@H](Nc2nc(-c3nccn3C)nc3sc(-c4ccn(C(C)C)n4)c(C)c23)C[C@H]1OC [Compound 43, N-((1s,3R,4S)-3,4-Dimethoxycyclopentyl)-6-(1-isopropyl-1H-pyrazol-3-yl)-5-methyl-2-(1-methyl-1H-imidazol-2-yl)thieno[2,3-d]pyrimidin-4-amine]	76 to 100	26 to 50	76 to 100	26 to 50	5 to 10	76 to 100	1 to 25	76 to 100	76 to 100	76 to 100	1 to 25	76 to 100	51 to 75	–	–	51 to 75
COCCNC(=O)c1nc(O)c2scc(-c3ccccn3)c2n1 [Compound 21, 4-Hydroxy-N-(2-methoxyethyl)-7-(pyridin-2-yl)thieno[3,2-d]pyrimidine-2-carboxamide]	1 to 25	26 to 50	51 to 75	26 to 50	> 10	26 to 50	26 to 50	26 to 50	26 to 50	26 to 50	26 to 50	26 to 50	26 to 50	> 10	–	1 to 25
CO[C@H]1CC[C@@H](Nc2nc(C(=O)Nc3ccccc3)nc3sccc23)C1 (racemic) [Compound 15, rac-4-(((1R,3S)-3-Methoxycyclopentyl)amino)-N-phenylthieno[2,3-d]pyrimidine-2-carboxamide]	0	1 to 25	0	0	> 10	0	1 to 25	0	0	0	1 to 25	0	0	> 10	–	1 to 25
Cc1c(-c2ccn(C(C)C)n2)sc2nc(-c3nccn3C)nc(NCCC3CCC(=O)N3)c12 (racemic) [Compound 56, rac-5-(2-((6-(1-Isopropyl-1H-pyrazol-3-yl)-5-methyl-2-(1-methyl-1H-imidazol-2-yl)thieno[2,3-d]pyrimidin-4-yl)amino)ethyl)pyrrolidin-2-one]	76 to 100	76 to 100	76 to 100	76 to 100	> 10	76 to 100	51 to 75	76 to 100	26 to 50	76 to 100	76 to 100	–	–	–	–	1 to 25

Continued, in another order:

inhibition at 20 µM (KRas wild type; [2]) [%]	inhibition at 20 µM (KRas wild type; [3]) [%]	inhibition at 20 µM (Rho-A; [4]) [%]	inhibition at 20 µM (Rac-1; [5]) [%]	IC50 ([1]; MIA PaCa-2, MIA PaCa-2) [µM]	inhibition at 20 µM (KRas Q61H mutant; [6]) [%]	inhibition at 20 µM (KRas Q61H mutant; [7]) [%]	inhibition at 20 µM (KRas G12D mutant; [8]) [%]	inhibition at 20 µM (KRas G12D mutant; [9]) [%]	inhibition at 20 µM (KRas G12C mutant; [10]) [%]	inhibition at 20 µM (KRas G12C mutant; [11]) [%]	inhibition at 20 µM (Rho-A; [12]) [%]	inhibition at 20 µM (Rac-1; [13]) [%]	IC50 (KRas Q61H mutant; with SOS) [µM]	IC50 [1, 14] [µM]	Compound	inhibition at 10 µM [1] [%]
51 to 75	76 to 100	76 to 100	51 to 75	1 to 4.99	51 to 75	51 to 75	51 to 75	51 to 75	51 to 75	51 to 75	–	–	–	–	COCCCn1ccnc1-c1nc(O)c2scc(-c3ccccn3)c2n1 [Compound 79, 2-(1-(3-Methoxypropyl)-1H-imidazol-2-yl)-7-(pyridin-2-yl)thieno[3,2-d]pyrimidin-4-ol]	76 to 100
76 to 100	51 to 75	26 to 50	1 to 25	< 1	76 to 100	51 to 75	51 to 75	51 to 75	76 to 100	51 to 75	26 to 50	26 to 50	1 to 4.99	< 0.4	CO[C@@H]1CC[C@H](Nc2nc(-c3nccn3C)nc3sc(-c4ccn(C(C)C)n4)c(-c4ccccc4)c23)C1 [Example 4, 6-(1-isopropyl-1H-pyrazol-3-yl)-N-((1S,3R)-3-methoxycyclopentyl)-2-(1-methyl-1H-imidazol-2-yl)-5-phenylthieno[2,3-d]pyrimidin-4-amine]	76 to 100
76 to 100	76 to 100	76 to 100	51 to 75	1 to 4.99	76 to 100	76 to 100	76 to 100	51 to 75	76 to 100	76 to 100	76 to 100	51 to 75	–	–	CO[C@@H]1CC[C@@H](Nc2nc(-c3nccn3C)nc3sc(-c4ccn(C(C)C)n4)c(C)c23)C1 (racemic) [Compound 33, rac-6-(1-Isopropyl-1H-pyrazol-3-yl)-N-((1R,3R)-3-methoxycyclopentyl)-5-methyl-2-(1-methyl-1H-imidazol-2-yl)thieno[2,3-d]pyrimidin-4-amine]	76 to 100
76 to 100	76 to 100	76 to 100	76 to 100	1 to 4.99	76 to 100	76 to 100	76 to 100	76 to 100	76 to 100	76 to 100	76 to 100	76 to 100	1 to 4.99	–	COCCn1ccnc1-c1nc(N[C@@H]2CC[C@H](OC)C2)c2c(-c3ccccc3)c(-c3ccn(C)n3)sc2n1 (racemic) [Compound 6, Rac-N-((1R,3S)-3-methoxycyclopentyl)-2-(1-(2-methoxyethyl)-1H-imidazol-2-yl)-6-(1-methyl-1H-pyrazol-3-yl)-5-phenylthieno[2,3-d]pyrimidin-4-amine]	76 to 100
26 to 50	51 to 75	51 to 75	26 to 50	< 1	26 to 50	51 to 75	51 to 75	51 to 75	26 to 50	26 to 50	–	–	–	< 0.4	COC[C@@H]1CC[C@@H]1CNc1nc(-c2nccn2C)nc2sc(-c3ccn(C(C)C)n3)c(C)c12 (racemic) [Compound 63, rac-6-(1-Isopropyl-1H-pyrazol-3-y)-N-(((1S,2R)-2-(methoxymethyl)cyclobutyl)methyl)-5-methyl-2-(1-methyl-1H-imidazol-2-yl)thieno[2,3-d]pyrimidin-4-amine]	76 to 100
